Test results from ChEMBL document CHEMBL1201862, “PubChem BioAssay data set” (2004).
The source made the active and inactive calls.

What was measured:
[1] = molecular target: T1, Heat shock factor protein 1 (Mus musculus, UniProt P38532); experiment: HSF1 potentiators in luciferase reporter cells, confirmation, cell-based, NIH3T3, luminescence, dose retest (AID 435004); type: functional;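 further: stress induced by proteasome inhibitor MG132 added 30 min after compound; luciferase reporter driven by HSF1 response element in NIH3T3 cells; actives raise luminescence as potentiators of the MG132 stress response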
T1 sequence (P38532 whole entry): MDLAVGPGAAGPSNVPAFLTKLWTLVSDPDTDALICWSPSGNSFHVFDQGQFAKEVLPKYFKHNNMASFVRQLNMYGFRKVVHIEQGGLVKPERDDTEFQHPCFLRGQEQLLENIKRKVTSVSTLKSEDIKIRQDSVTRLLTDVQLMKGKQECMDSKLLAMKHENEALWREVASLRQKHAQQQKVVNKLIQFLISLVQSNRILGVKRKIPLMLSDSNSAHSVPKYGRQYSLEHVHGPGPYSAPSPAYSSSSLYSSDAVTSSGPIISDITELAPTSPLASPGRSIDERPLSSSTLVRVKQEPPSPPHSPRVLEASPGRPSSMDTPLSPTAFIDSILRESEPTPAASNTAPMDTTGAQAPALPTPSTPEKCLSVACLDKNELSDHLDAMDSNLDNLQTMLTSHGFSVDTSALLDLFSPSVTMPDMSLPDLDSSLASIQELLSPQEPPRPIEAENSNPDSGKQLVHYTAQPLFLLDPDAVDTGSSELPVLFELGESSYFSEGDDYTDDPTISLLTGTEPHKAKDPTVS

[2] = molecular target: T2, Polyadenylate-binding protein 1 (Homo sapiens, UniProt P11940); experiment: PABP1 MLLE–PAM2 interaction inhibitors, dose response, miRNA deadenylation inhibitor project, biochemical, fluorescence polarization, Cy5-PAM2 peptide, secondary (AID 602260); type: functional; conditions: read-out: IC50_Mean
[3] = molecular target: T2, Polyadenylate-binding protein 1; experiment: PABP1 MLLE–PAM2 binding inhibitor potency, dose response, biochemical, fluorescence polarization, FITC-PAM2 peptide (AID 602259); type: functional; conditions: read-out: IC50_Mean
Cytochrome P450 2D6 = Cytochrome P450 2D6 (Homo sapiens, UniProt P10635);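 further: CYP2D6 member of a cytochrome P450 panel assay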
Cytochrome P450 3A4 = Cytochrome P450 3A4 (Homo sapiens, UniProt P08684);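 further: CYP3A4 tested as one member of a cytochrome P450 panel screen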
Cytochrome P450 2C19 = Cytochrome P450 2C19 (Homo sapiens, UniProt P33261); experiment: Cytochrome panel assay with activity outcomes. Panel member name: p450-cyp2c19 Compounds with AC50 equal or less than 10 uM are considered active; type: functional; conditions: read-out: AC50
Cytochrome P450 2C9 = Cytochrome P450 2C9 (Homo sapiens, UniProt P11712)
Cytochrome P450 1A2 = molecular target: T3, Cytochrome P450 1A2 (Homo sapiens, UniProt P05177);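 further: PubChem cytochrome P450 panel assay, CYP1A2 panel member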
T3 sequence (P05177 whole entry): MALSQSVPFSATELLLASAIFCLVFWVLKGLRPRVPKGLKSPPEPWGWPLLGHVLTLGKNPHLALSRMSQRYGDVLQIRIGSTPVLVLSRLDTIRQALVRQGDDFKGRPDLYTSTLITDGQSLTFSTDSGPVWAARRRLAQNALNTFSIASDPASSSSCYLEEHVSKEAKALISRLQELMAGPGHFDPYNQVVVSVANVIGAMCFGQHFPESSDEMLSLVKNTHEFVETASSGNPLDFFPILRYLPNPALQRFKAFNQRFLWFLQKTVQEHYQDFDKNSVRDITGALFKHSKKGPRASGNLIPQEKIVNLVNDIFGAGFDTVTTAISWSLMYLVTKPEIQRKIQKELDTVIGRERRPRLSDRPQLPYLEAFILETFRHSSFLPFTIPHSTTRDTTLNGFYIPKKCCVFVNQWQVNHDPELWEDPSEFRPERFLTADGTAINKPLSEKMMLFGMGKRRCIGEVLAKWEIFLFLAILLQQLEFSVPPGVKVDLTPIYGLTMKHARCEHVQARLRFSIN

Large T antigen = Large T antigen (Simian virus 40, UniProt P03070); type: functional, Betapolyomavirus macacae;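 further: Confirmatory-stage PubChem screen for compounds that inhibit SV40 T antigen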
[4] = molecular target: T4, Replicative DNA helicase DnaB (Mycobacterium tuberculosis, UniProt P9WMR3); experiment: DnaB intein splicing inhibitors, dose response, biochemical, cell-free fluorescence (AID 449749); type: functional
T4 sequence (P9WMR3 whole entry): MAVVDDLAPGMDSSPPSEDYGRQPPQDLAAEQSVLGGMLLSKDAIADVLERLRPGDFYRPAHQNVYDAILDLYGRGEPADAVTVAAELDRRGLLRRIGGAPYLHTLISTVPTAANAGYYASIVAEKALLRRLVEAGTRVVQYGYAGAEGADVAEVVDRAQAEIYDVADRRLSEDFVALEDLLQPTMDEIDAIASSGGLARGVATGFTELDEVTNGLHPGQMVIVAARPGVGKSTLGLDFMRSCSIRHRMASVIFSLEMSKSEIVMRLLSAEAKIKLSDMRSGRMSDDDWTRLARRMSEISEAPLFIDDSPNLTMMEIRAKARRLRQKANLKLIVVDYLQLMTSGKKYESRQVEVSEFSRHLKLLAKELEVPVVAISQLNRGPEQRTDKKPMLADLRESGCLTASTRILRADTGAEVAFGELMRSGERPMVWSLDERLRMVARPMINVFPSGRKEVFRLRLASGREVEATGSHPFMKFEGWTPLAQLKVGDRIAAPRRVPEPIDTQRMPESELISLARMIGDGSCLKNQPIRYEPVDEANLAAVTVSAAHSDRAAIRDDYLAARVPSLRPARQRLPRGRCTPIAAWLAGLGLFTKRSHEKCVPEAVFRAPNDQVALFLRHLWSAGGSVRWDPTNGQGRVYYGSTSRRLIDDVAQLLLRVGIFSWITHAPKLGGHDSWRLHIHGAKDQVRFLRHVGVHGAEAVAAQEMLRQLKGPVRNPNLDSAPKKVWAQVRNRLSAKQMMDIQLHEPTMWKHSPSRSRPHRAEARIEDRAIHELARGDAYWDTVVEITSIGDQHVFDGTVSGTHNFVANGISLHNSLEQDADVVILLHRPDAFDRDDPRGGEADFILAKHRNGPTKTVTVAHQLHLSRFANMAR

Protein RecA = molecular target: T5, Protein RecA (Mycobacterium tuberculosis, UniProt P9WHJ3); experiment: Fluorescence Cell-Free Homogeneous Dose Retest to Identify Inhibitors of RecA-Intein Splicing Activity. [Related pubchem assays (depositor defined):AID2097, AID2223, AID489010, AID492950]; type: functional
T5 sequence (P9WHJ3 whole entry): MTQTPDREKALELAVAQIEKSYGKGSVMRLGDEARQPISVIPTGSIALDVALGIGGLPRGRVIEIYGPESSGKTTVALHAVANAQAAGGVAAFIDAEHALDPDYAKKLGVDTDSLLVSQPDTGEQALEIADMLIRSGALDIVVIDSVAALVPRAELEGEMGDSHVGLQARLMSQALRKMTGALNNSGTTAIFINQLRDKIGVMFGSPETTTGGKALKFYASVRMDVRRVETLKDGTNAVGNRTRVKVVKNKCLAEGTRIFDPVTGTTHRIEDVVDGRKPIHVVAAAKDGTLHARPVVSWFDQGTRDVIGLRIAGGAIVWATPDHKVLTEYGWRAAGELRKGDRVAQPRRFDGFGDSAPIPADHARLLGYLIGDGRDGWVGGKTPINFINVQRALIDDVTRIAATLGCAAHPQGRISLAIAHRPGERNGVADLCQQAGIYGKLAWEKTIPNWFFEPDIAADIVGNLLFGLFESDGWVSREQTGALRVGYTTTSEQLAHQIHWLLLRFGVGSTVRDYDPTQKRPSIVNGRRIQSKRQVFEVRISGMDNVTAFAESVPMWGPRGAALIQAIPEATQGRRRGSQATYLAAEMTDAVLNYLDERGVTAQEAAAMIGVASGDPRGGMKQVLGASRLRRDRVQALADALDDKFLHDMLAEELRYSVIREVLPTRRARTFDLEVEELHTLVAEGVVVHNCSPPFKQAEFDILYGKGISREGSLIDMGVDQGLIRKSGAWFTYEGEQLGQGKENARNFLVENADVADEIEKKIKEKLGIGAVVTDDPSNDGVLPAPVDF

Vero = experiment: cells; type: functional; conditions: Chlorocebus sabaeus
[5] = P. falciparum Dd2 growth inhibitors, dose response, SYBR Green, cherry-picked samples (AID 1159567); type: functional, cell-based

T2 sequence (P11940 whole entry): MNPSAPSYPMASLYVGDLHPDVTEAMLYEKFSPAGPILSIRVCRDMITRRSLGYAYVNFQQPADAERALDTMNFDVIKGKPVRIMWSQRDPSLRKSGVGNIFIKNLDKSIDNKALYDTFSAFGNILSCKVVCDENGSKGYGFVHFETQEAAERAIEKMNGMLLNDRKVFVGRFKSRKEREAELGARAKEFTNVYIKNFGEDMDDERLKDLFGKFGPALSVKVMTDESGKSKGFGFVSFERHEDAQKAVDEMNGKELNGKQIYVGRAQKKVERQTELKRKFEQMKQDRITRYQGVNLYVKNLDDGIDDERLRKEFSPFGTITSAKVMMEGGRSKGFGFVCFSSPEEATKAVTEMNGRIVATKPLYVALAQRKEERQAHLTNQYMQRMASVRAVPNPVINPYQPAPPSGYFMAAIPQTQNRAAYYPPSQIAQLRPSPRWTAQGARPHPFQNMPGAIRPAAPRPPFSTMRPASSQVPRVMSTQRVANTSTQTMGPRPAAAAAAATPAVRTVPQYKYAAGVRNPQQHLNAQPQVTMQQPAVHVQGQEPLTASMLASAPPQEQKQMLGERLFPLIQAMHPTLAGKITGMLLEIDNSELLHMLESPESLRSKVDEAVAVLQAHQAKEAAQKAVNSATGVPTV
Chain of Cytochrome P450 2C19 (P33261 whole entry): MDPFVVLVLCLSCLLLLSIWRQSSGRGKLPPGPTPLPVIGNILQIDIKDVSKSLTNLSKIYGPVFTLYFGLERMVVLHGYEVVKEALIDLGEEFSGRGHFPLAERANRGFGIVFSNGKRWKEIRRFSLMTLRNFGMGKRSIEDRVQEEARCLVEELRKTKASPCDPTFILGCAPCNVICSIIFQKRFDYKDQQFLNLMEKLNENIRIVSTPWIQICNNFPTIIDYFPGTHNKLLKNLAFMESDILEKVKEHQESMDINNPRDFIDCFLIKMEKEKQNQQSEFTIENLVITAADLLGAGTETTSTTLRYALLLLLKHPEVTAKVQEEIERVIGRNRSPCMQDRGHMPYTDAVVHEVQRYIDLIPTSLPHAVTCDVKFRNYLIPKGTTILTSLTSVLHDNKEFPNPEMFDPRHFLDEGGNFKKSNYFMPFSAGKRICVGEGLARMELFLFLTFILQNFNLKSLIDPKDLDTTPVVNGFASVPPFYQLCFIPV
Chain of Cytochrome P450 2D6 (P10635 whole entry): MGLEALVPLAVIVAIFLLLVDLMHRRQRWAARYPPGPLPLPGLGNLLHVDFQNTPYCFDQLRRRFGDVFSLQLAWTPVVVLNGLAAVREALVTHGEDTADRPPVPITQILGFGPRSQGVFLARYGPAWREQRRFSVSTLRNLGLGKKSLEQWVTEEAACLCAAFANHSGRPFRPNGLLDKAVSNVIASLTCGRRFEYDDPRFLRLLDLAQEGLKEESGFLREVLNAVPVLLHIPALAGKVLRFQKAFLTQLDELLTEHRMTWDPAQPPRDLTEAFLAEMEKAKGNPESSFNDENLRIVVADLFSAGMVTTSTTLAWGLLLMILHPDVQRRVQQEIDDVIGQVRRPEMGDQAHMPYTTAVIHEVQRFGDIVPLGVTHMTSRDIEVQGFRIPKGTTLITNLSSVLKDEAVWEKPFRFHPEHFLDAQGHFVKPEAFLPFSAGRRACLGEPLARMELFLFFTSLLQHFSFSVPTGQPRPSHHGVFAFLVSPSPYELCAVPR
Chain of Cytochrome P450 3A4 (P08684 whole entry): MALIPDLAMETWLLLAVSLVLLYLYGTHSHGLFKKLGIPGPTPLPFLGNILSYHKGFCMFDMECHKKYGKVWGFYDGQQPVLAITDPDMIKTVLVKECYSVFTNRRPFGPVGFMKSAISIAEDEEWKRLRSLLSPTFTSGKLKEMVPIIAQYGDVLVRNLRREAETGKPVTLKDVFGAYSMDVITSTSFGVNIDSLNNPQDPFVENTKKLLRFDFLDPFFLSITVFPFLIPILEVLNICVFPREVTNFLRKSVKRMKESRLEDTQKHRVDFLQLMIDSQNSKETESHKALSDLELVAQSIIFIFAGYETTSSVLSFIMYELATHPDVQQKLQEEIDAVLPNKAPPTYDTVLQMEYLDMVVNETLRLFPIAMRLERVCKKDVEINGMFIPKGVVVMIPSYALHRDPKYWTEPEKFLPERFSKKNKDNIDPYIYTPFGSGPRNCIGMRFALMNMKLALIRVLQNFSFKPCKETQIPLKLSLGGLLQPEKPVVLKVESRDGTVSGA
Chain of Cytochrome P450 2C9 (P11712 whole entry): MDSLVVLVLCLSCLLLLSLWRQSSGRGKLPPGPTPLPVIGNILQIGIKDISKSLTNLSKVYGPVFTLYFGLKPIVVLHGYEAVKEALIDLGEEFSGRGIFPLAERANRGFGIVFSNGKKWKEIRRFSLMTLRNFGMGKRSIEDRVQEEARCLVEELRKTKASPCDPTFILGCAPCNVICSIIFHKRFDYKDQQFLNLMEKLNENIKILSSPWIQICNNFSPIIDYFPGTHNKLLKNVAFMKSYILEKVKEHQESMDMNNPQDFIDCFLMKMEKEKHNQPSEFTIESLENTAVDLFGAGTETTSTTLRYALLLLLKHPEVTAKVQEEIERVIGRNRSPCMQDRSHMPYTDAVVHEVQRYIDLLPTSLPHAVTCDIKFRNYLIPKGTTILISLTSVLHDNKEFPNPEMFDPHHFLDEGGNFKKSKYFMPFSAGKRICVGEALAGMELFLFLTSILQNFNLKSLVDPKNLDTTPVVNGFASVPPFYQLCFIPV
Chain of Large T antigen (P03070 whole entry): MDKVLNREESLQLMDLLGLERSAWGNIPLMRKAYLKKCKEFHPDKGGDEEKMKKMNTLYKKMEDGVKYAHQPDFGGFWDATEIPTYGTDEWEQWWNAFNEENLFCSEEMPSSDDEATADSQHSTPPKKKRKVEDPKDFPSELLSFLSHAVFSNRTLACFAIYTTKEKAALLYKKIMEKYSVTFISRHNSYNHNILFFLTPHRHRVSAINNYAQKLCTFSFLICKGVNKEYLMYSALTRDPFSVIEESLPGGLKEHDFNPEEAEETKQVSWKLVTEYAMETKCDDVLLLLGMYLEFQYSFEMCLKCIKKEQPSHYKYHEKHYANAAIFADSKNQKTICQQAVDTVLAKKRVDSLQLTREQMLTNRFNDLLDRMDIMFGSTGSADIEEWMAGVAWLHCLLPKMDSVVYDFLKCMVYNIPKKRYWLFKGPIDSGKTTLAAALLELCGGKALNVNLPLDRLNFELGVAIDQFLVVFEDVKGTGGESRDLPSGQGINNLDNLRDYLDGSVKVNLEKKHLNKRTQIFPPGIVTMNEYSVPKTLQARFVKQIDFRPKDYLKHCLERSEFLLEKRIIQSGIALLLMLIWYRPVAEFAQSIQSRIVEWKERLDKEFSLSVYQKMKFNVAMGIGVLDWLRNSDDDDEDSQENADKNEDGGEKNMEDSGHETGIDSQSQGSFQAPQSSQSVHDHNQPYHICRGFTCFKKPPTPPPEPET

## COc1ccc(S(=O)(=O)N2CCC(C(=O)NCc3cccnc3)CC2)cc1C
[1]
  EC50: > 260 µM (inactive)

## COc1ccc(Nc2ccc([N+](=O)[O-])cn2)cn1
[2]
  IC50: > 66 µM (inactive)
[3]
  IC50: 59.6 µM (inactive)

## N=c1n(-c2ccccc2)c(O)cc(=O)n1-c1ccccc1
Cytochrome P450 2D6
  AC50: 22.4 µM (inconclusive)
Cytochrome P450 3A4
  AC50: 25.1 µM (inconclusive)

## Fc1cc(NCc2ccccc2)nc(NCc2ccccc2)n1
[1]
  EC50: 91.1 µM (active)

## COc1ccc(-c2nnn(Cc3nc(N)nc(N4CCOCC4)n3)n2)cc1OC
Cytochrome P450 2C19
  AC50: 35.5 µM (inconclusive)
Cytochrome P450 2D6
  AC50: 12.6 µM (inconclusive)
Cytochrome P450 3A4
  AC50: 28.2 µM (inconclusive)
Cytochrome P450 2C9
  AC50: 25.1 µM (inconclusive)

## COC(=O)c1c(NC(=O)c2ccc(C)o2)sc2c1CCCCC2
[2]
  IC50: > 66 µM (inactive)
[3]
  IC50: > 66 µM (inactive)

## CCOC(=O)/C(C#N)=C1/SC(CC)C(=O)N1c1ccc(Br)cc1 (stereo unspecified)
Cytochrome P450 2D6
  AC50: 11.2 µM (inconclusive)
Cytochrome P450 1A2
  AC50: 31.6 µM (inconclusive)
Cytochrome P450 3A4
  AC50: 28.2 µM (inconclusive)

## Cc1ccc(S(=O)(=O)Cc2cc(F)c([N+](=O)[O-])cc2[N+](=O)[O-])cc1
Large T antigen
  IC50: 4.86 µM (active)
[4]
  AC50: 16.6 µM (active)
Protein RecA
  EC50: 17.2 µM (active)

## Cc1ccccc1NC(=O)OCc1cn(-c2ccc(Cl)cc2)nn1
Cytochrome P450 2C19
  AC50: 8.91 µM (inconclusive)
Cytochrome P450 2D6
  AC50: 0.708 µM (inconclusive)
Cytochrome P450 3A4
  AC50: 0.794 µM (inconclusive)

## CCc1ccccc1NC1=NCC(=O)N1C1CCCCC1
[1]
  EC50: > 260 µM (inactive)

## Cc1cc(S(=O)(=O)NCCCN2CCOCC2)ccc1F
Cytochrome P450 2C19
  AC50: 28.2 µM (inconclusive)
Cytochrome P450 3A4
  AC50: 28.2 µM (inconclusive)

## COc1ccc(OC)c(/C=C/C(=O)c2ccc3c(c2)OCCO3)c1
Vero
  CC50: 18.8 µM (active)

## COc1ccc(C(=O)NC(=S)Nc2nc(C)c(C(=O)N(C)C)s2)cc1
[2]
  IC50: > 66 µM (inactive)
[3]
  IC50: > 66 µM (inactive)

## O=C(CSc1ncn(-c2ccccc2)n1)Nc1ccc2c(c1)OCCO2
[2]
  IC50: > 66 µM (inactive)
[3]
  IC50: > 66 µM (inactive)

## O=C(NCc1ccc(N2CCCC2=O)cc1)Nc1ccccc1
[1]
  EC50: > 260 µM (inactive)

## Cc1ccnc(N2CCCC(C(=O)Nc3ccc(C)c(C)c3)C2)n1 (stereo unspecified)
[1]
  EC50: > 260 µM (inactive)

## COc1ccc(CNCCc2ccccc2)cc1OCC(N)=O
Cytochrome P450 2C19
  AC50: 6.31 µM (inconclusive)
Cytochrome P450 3A4
  AC50: 17.8 µM (inconclusive)
Cytochrome P450 2C9
  AC50: 0.0282 µM (inconclusive)

## CC1=Nc2cc(C(=O)O)ccc2Sc2c(C)ccc(C)c21
[1]
  EC50: > 260 µM (inactive)

## CO/N=C1/c2cc(OC)ccc2O[C@@H](c2cccc(OC)c2)[C@H]1O
Cytochrome P450 2C19
  AC50: 3.98 µM (inconclusive)
Cytochrome P450 2D6
  AC50: 3.16 µM (inconclusive)
Cytochrome P450 3A4
  AC50: 6.31 µM (inconclusive)

## CCC(C)c1ccccc1NC(=O)c1cc(C)no1 (stereo unspecified)
[1]
  EC50: > 260 µM (inactive)

## CCCN1C2=NCCCN2c2ccccc21
Cytochrome P450 2C19
  AC50: 20 µM (inconclusive)
Cytochrome P450 3A4
  AC50: 35.5 µM (inconclusive)

## O=C(CSc1nccc(=O)[nH]1)N1CCCc2ccccc21
[2]
  IC50: > 66 µM (inactive)
[3]
  IC50: > 66 µM (inactive)

## CC1C(=O)N(Cc2cn(Cc3ccco3)nn2)CCS(=O)(=O)N1Cc1ccc(-c2ccccc2)cc1 (stereo unspecified)
Vero
  CC50: > 25 µM (active)

## NNC(=O)C1C(O)CCC2CN3CCc4c([nH]c5ccccc45)C3CC21 (stereo unspecified)
Vero
  CC50: > 25 µM (active)

## Cc1ccc(CN2CCN(/N=C/c3ccc(C)s3)CC2)c(C)c1
[1]
  EC50: > 260 µM (inactive)

## C[C@@H]1CN([C@@H](C)CO)C(=O)c2cc(C#Cc3ccccc3)cnc2O[C@H]1CN(C)C(=O)CCN1CCCCC1
[5]
  AC50: 3.03 µM (active)

## O=C(C1CCCC1)N1CC[C@@H]2[C@H](CO)Nc3ccc(Br)cc3[C@@H]21
[5]
  AC50: 12.7 µM (active)

## COc1ccc2c3c(n(C)c2c1)[C@@H](CO)N(C(=O)Nc1ccc(F)cc1)CC31CN(C(=O)c2ccc3c(c2)OCO3)C1
[5]
  AC50: 5.67 µM (active)

## CCCNC(=O)Nc1ccc2c(c1)OC[C@@H](C)N(CC1CCCC1)C[C@@H](C)[C@H](OC)CN(C)C2=O
[5]
  AC50: 6.1 µM (active)

## CCCC(=O)N1CCC2(CC1)CN(Cc1ccncc1)[C@@H](CO)c1[nH]c3cc(OC)ccc3c12
[5]
  AC50: 7.29 µM (active)
